From patent US20080207527A1, “Bicyclic Compounds Which Inhibit Beta-Secretase Activity and Methods of Use Thereof” (CoMentis, Inc., priority 2004, published 2008)

Columns and labels:
memapsin 2 = memapsin 2 (Homo sapiens, UniProt P56817); assay: Inhibition of memapsin 2 beta-secretase activity toward fluorogenic substrate FS-2; assay type: biochemical; conditions: pH 4, 37° C., 20 minutes pre-incubation, read-out: M2 Ki
Method in brief: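 Enzyme pre-incubated with compound 20 min at pH 4, 37 °C, then fluorogenic substrate FS-2 added. Inhibition derived from rate of fluorescence increase from peptide hydrolysis.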

Cathepsin D = Cathepsin D (Homo sapiens, UniProt P07339); assay: Inhibition of cathepsin D activity (substrate peptide hydrolysis, MALDI-TOF); assay type: biochemical; conditions: pH 4.1, 37 degrees C., read-out: Cath D Ki
Cathepsin D, sequence (P07339 65-412, species assumed): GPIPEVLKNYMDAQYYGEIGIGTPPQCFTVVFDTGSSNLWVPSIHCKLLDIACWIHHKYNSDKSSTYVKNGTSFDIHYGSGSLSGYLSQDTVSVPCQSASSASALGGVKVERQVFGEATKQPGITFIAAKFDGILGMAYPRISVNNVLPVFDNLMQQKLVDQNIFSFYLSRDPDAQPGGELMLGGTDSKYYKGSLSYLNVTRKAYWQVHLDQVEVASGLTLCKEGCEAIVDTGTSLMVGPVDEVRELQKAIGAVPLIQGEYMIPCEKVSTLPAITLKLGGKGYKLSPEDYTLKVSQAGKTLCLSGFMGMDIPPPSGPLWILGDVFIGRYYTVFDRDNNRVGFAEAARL

memapsin 1 = biological target: T1, memapsin 1 (Homo sapiens, UniProt Q9Y5Z0); assay: Inhibition of memapsin 1 beta-secretase activity (substrate peptide hydrolysis, MALDI-TOF); assay type: biochemical; conditions: pH 4.1, 37 degrees C., read-out: M1 Ki
T1 sequence (Q9Y5Z0 63-518): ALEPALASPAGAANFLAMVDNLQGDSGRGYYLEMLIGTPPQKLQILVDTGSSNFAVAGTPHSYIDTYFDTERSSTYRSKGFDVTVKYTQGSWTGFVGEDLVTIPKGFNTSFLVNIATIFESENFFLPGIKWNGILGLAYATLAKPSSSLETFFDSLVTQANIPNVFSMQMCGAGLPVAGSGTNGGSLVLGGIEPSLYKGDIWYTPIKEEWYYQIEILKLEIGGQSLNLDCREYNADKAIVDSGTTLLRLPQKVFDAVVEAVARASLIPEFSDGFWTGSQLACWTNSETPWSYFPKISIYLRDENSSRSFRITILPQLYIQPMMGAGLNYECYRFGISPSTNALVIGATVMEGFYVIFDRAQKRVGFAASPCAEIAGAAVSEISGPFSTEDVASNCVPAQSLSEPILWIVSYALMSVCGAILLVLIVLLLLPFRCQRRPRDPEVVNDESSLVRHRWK

Aβ production = assay: Cellular Aβ IC50 determination (Aβ40 sandwich ELISA); assay type: cell-based; conditions: Cricetulus griseus, Chinese hamster ovary cells over-expressing human APP695 with London and Swedish mutations, 24 h
Method in brief: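 CHO cells over-expressing human APP695 (London and Swedish mutations) were treated 48 h after seeding with serially diluted compound, top final concentration near 4 μM (0.4% DMSO), for 24 h at 37 °C, 5% CO2. Aβ40 in medium was measured by sandwich ELISA; values relative to control were fit to a 4-parameter IC50 model.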

memapsin 2, sequence (P56817 46-501): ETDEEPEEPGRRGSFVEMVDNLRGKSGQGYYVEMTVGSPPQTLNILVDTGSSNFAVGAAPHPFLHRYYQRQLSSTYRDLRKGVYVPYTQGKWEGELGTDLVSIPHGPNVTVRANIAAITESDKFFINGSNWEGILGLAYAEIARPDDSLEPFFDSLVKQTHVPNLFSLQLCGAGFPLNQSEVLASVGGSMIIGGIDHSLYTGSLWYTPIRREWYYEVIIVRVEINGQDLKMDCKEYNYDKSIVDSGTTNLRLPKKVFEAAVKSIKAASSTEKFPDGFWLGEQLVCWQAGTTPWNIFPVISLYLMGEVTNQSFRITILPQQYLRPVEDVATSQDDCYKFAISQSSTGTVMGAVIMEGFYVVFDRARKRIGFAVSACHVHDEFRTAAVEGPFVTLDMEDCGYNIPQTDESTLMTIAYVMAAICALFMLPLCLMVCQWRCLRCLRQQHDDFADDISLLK

| Ki (memapsin 2) [nM] | Ki (Cathepsin D) [nM] | Ki (memapsin 1) [nM] | IC50 (Aβ production) [nM] | SMILES |
| --- | --- | --- | --- | --- |
| 405 to 2000 | < 405 | < 405 | > 20000 | CC(C)CNC(=O)C(NC(=O)C(C)CC(O)C(CC(C)C)NC(=O)c1cc(C(=O)N(C)C(C)c2ccccc2)cc(N(C)S(C)(=O)=O)c1)C(C)C (stereo not shown) [N1-(5-hydroxy-8-(1-(isobutylamino)-3-methyl-1-oxobutan-2-ylamino)-2,7-dimethyl-8-oxooctan-4-yl)-N3-methyl-5-(N-methylmethylsulfonamido)-N3-(1-phenylethyl)isophthalamide] |
| 2000 to 5000 | > 5000 | 2000 to 5000 | > 20000 | CC(C)CC(NC(=O)c1cc(C(=O)NC(C)c2ccccc2)cc(N(C)S(C)(=O)=O)c1)C(O)CC(C)C(=O)NCc1ccccc1 (stereo not shown) [N1-(8-(benzylamino)-5-hydroxy-2,7-dimethyl-8-oxooctan-4-yl)-5-(N-methylmethylsulfonamido)-N3-(1-phenylethyl)isophthalamide] |
| 405 to 2000 | < 405 | < 405 | 10000 to 20000 | CC(C)CNC(=O)C(NC(=O)C(C)CC(O)C(CC(C)C)NC(=O)c1cc(F)cc(C(=O)NC(C)c2ccccc2)c1)C(C)C (stereo not shown) [5-fluoro-N1-(5-hydroxy-8-(1-(isobutylamino)-3-methyl-1-oxobutan-2-ylamino)-2,7-dimethyl-8-oxooctan-4-yl)-N3-(1-phenylethyl)isophthalamide] |
| < 405 | 405 to 2000 | < 405 | < 5000 | CC(C)CC(NC(=O)c1cc(C(=O)NC(C)c2ccccc2)cc(N(C)S(C)(=O)=O)c1)C(O)CC(C)C(=O)NC(C(=O)NCc1cccnc1)C(C)C (stereo not shown) [N1-(5-hydroxy-2,7-dimethyl-8-(3-methyl-1-oxo-1-(pyridin-3-ylmethylamino)butan-2-ylamino)-8-oxooctan-4-yl)-5-(N-methylmethylsulfonamido)-N3-(1-phenylethyl)isophthalamide] |
| < 405 | < 405 | 405 to 2000 | 10000 to 20000 | CCCN(Cc1nc(C)cs1)C(=O)c1cccc(C(=O)NC(CC(C)C)C(O)CC(C)C(=O)NC(C(=O)NCC(C)C)C(C)C)c1 (stereo not shown) [N1-(5-hydroxy-8-(1-(isobutylamino)-3-methyl-1-oxobutan-2-ylamino)-2,7-dimethyl-8-oxooctan-4-yl)-N3-((4-methylthiazol-2-yl)methyl)-N3-propylisophthalamide] |
| < 405 | < 405 | < 405 | > 20000 | CC(C)CNC(=O)C(NC(=O)C(C)CC(O)C(CC(C)C)NC(=O)c1cccc(C(=O)N(C)Cc2cccnc2)c1)C(C)C (stereo not shown) [N1-(5-hydroxy-8-(1-(isobutylamino)-3-methyl-1-oxobutan-2-ylamino)-2,7-dimethyl-8-oxooctan-4-yl)-N3-methyl-N3-(pyridin-3-ylmethyl)isophthalamide] |
| < 405 | 405 to 2000 | 405 to 2000 | < 5000 | Cc1ccc(CNC(=O)c2cc(C(=O)NC(CC(C)C)C(O)CC(C)C(=O)NC(C(=O)NCC(C)C)C(C)C)cc(N(C)S(C)(=O)=O)c2)o1 (stereo not shown) [N1-(5-hydroxy-8-(1-(isobutylamino)-3-methyl-1-oxobutan-2-ylamino)-2,7-dimethyl-8-oxooctan-4-yl)-N3-((5-methylfuran-2-yl)methyl)-5-(N-methylmethylsulfonamido)isophthalamide] |
| < 405 | > 5000 | < 405 | > 20000 | CCc1csc(CN(C)C(=O)c2cccc(C(=O)NC(CC(C)C)C(O)CC(C)C(=O)NC(C(=O)NCC(C)C)C(C)C)c2)n1 (stereo not shown) [N1-((4-ethylthiazol-2-yl)methyl)-N3-(5-hydroxy-8-(1-(isobutylamino)-3-methyl-1-oxobutan-2-ylamino)-2,7-dimethyl-8-oxooctan-4-yl)-N1-methylisophthalamide] |
| 405 to 2000 | < 405 | < 405 | > 20000 | CC(C)CNC(=O)C(NC(=O)C(C)CC(O)C(CC(C)C)NC(=O)c1cccc(C(=O)N(C)Cc2ccccn2)c1)C(C)C (stereo not shown) [N1-(5-hydroxy-8-(1-(isobutylamino)-3-methyl-1-oxobutan-2-ylamino)-2,7-dimethyl-8-oxooctan-4-yl)-N3-methyl-N3-(pyridin-2-ylmethyl)isophthalamide] |
| < 405 | < 405 | < 405 | < 5000 | CCC(NC(=O)C(C)CC(O)C(CC(C)C)NC(=O)c1cc(C(=O)NC(C)c2ccccc2)cc(N(C)S(C)(=O)=O)c1)C(=O)NCC(C)C (stereo not shown) [N1-(5-hydroxy-8-(1-(isobutylamino)-1-oxobutan-2-ylamino)-2,7-dimethyl-8-oxooctan-4-yl)-5-(N-methylmethylsulfonamido)-N3-(1-phenylethyl)isophthalamide] |
| < 405 | 405 to 2000 | > 5000 | < 5000 | CCC(NC(=O)C(C)CC(O)C(CC(C)C)NC(=O)c1cccc(C(=O)N(C)Cc2nc(C)cs2)c1)C(=O)NC(C)C (stereo not shown) [N1-(5-hydroxy-8-(1-(isopropylamino)-1-oxobutan-2-ylamino)-2,7-dimethyl-8-oxooctan-4-yl)-N3-methyl-N3-((4-methylthiazol-2-yl)methyl)isophthalamide] |
| < 405 | < 405 | 405 to 2000 | > 20000 | CC(C)CNC(=O)C(NC(=O)C(C)CC(O)C(CC(C)C)NC(=O)c1cc(C(=O)N(C)Cc2ccccn2)cc(N(C)S(C)(=O)=O)c1)C(C)C (stereo not shown) [N1-(5-hydroxy-8-(1-(isobutylamino)-3-methyl-1-oxobutan-2-ylamino)-2,7-dimethyl-8-oxooctan-4-yl)-N3-methyl-5-(N-methylmethylsulfonamido)-N3-(pyridin-2-ylmethyl)isophthalamide] |
| 405 to 2000 | < 405 | < 405 | > 20000 | CC(C)CC(NC(=O)c1cc(C(=O)NC(C)c2ccccc2)cc(N(C)C(=O)OC2CCOC2)c1)C(O)CC(C)C(=O)NC(C(=O)NC(C)C)C(C)C (stereo not shown) [tetrahydrofuran-3-yl 3-(5-hydroxy-8-(1-(isopropylamino)-3-methyl-1-oxobutan-2-ylamino)-2,7-dimethyl-8-oxooctan-4-ylcarbamoyl)-5-(1-phenylethylcarbamoyl)phenyl(methyl)carbamate] |
| < 405 | < 405 | < 405 | 10000 to 20000 | CC(C)CNC(=O)C(NC(=O)C(C)CC(O)C(CC(C)C)NC(=O)c1cc(C(=O)N(C)Cc2ccccc2)cc(N(C)S(C)(=O)=O)c1)C(C)C (stereo not shown) [N1-benzyl-N3-(5-hydroxy-8-(1-(isobutylamino)-3-methyl-1-oxobutan-2-ylamino)-2,7-dimethyl-8-oxooctan-4-yl)-N1-methyl-5-(N-methylmethylsulfonamido)isophthalamide] |
| < 405 | < 405 | < 405 | > 20000 | CC(C)CNC(=O)C(NC(=O)C(C)CC(O)C(CC(C)C)NC(=O)c1cncc(C(=O)N(C)Cc2ccccn2)c1)C(C)C (stereo not shown) [N3-(5-hydroxy-8-(1-(isobutylamino)-3-methyl-1-oxobutan-2-ylamino)-2,7-dimethyl-8-oxooctan-4-yl)-N5-methyl-N5-(pyridin-2-ylmethyl)pyridine-3,5-dicarboxamide] |
| < 405 | < 405 | 405 to 2000 | > 20000 | CC(C)CNC(=O)C(NC(=O)C(C)CC(O)C(CC(C)C)NC(=O)c1cccc(C(=O)N(C)Cc2ccco2)c1)C(C)C (stereo not shown) [N1-(furan-2-ylmethyl)-N3-(5-hydroxy-8-(1-(isobutylamino)-3-methyl-1-oxobutan-2-ylamino)-2,7-dimethyl-8-oxooctan-4-yl)-N1-methylisophthalamide] |
| < 405 | < 405 | < 405 | < 5000 | CCCN(CCC)C(=O)c1cccc(C(=O)NC(Cc2cc(F)cc(F)c2)C(O)CC(C)C(=O)NCC(C)C)c1 (stereo not shown) [N1-(1-(3,5-difluorophenyl)-3-hydroxy-6-(isobutylamino)-5-methyl-6-oxohexan-2-yl)-N3,N3-dipropylisophthalamide] |
| < 405 | < 405 | < 405 | < 5000 | Cc1cc(C(=O)NC(CC(C)C)C(O)CC(C)C(=O)NC(C(=O)NCC(C)C)C(C)C)cc(C(=O)N(C)Cc2nc(C)cs2)c1 (stereo not shown) [N1-(5-hydroxy-8-(1-(isobutylamino)-3-methyl-1-oxobutan-2-ylamino)-2,7-dimethyl-8-oxooctan-4-yl)-N3,5-dimethyl-N3-((4-methylthiazol-2-yl)methyl)isophthalamide] |
| < 405 | 405 to 2000 | 405 to 2000 | > 20000 | CC(C)CNC(=O)C(NC(=O)C(C)CC(O)C(CC(C)C)NC(=O)c1cc(C(=O)NCc2cnccn2)cc(N(C)S(C)(=O)=O)c1)C(C)C (stereo not shown) [N1-(5-hydroxy-8-(1-(isobutylamino)-3-methyl-1-oxobutan-2-ylamino)-2,7-dimethyl-8-oxooctan-4-yl)-5-(N-methylmethylsulfonamido)-N3-(pyrazin-2-ylmethyl)isophthalamide] |
